In the METLIN SMRT retention time set (Domingo-Almenara et al. 2019):

Experiment: gradient 5% acetonitrile 3 min, to 50% in 2 min, to 85% in 15 min, held 3 min, 100 µL/min
Conditions: column: Zorbax Extend-C18 2.1 x 50 mm; eluents: water / acetonitrile, 0.1% formic acid
Procedure, shortened: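 In both positive and negative ionization mode, a quadrupole time-of-flight mass spectrometer coupled to HPLC analyzed pure standards run in mixtures of ~100 molecules. The Zorbax Extend-C18 column (2.1 × 50 mm, 1.8 μm) was operated at 100 μL/min with water and acetonitrile, each containing 0.1% formic acid. The dead volume was 40 μL and the dwell volume 900 μL. Retention time came from adduct peaks that were computationally picked and individually inspected by hand.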

SMILES	RP-LC retention time [s]
Cc1cnc(-c2ccncc2)n1CC1CN(Cc2cccn2C)C1	692
O=C(c1cccc(OCC2CCCN(C(=O)C3CCCO3)C2)c1)N1CCCCC1 (stereo not drawn)	750
Cc1ccc2c(c1)C(O)(CC(=O)c1cccc(Cl)c1)C(=O)N2 (stereo not drawn)	785
CNC(=O)c1cc(Nc2ccc3nc(Nc4ccc(Cl)c(C(F)(F)F)c4)[nH]c3c2)ccn1	631
COc1ccc(-c2oc3c(CC=C(C)C)c(OC4O[C@H](CO)[C@@H](O)[C@H](O)[C@H]4O)cc(O)c3c(=O)c2OC2O[C@@H](C)[C@H](O)[C@@H](O)[C@H]2O)cc1 (stereo partly drawn)	669
CNC(=O)N1CCOc2cc(C)ccc21	713
O=C(CN1CCCCC1c1nc(-c2cccc(F)c2)no1)Nc1ccccc1F (stereo not drawn)	1230
O=C(C1CCC1)N1[C@H]2CC[C@@H]1c1cnc(-c3ccccc3)nc1C2	876
CN1c2ccccc2C(=O)NC12CCN(C(=O)c1ccccc1F)CC2	712
O=C(O)c1ccc(N2CCCC(CN3CCCC3)C2)c(NS(=O)(=O)c2cccc(F)c2)c1 (stereo not drawn)	648
COc1ccc(CN2CCc3nc(N4CCCC4)ncc3C2)c(OC)c1	619
COCCCNC(=O)C1CCC(=O)N(c2cc(OC)c(OC)c(OC)c2)C1c1ccc(OC)cc1 (stereo not drawn)	572
CCCc1nnsc1C(=O)NCc1nc(C)no1	656
CCCCc1ccc(Nc2nc(C(=O)OCC)nc3ccccc23)cc1	1110
COc1ccc(-c2cn3c(CC(=O)Nc4cc(C)ccc4C)csc3n2)cc1OC	746
Cc1ccc2nc(-c3ccc(NC(=O)c4cc5cccnc5n(C)c4=O)cc3)sc2c1	864
O=C(c1cc2c(s1)CCCC2)N1CCN(c2nnc3ccccn23)CC1	746
COc1cccc(CNC(=O)C2(C)CCCN(C(=O)Nc3ccccc3C(F)(F)F)C2)c1 (stereo not drawn)	934
COc1cc(OC)cc(C(=O)N2CCc3cn(C)c4cccc(c34)C2)c1	952
Cc1ccc(-c2nc(Nc3ccccc3F)sc2CC(=O)O)cc1	960
c1cc(-c2nc(-c3ccc4c(c3)ncn4CCN3CCCCC3)no2)ccn1	581
COc1cc([C@@H]2c3cc4c(cc3[C@H](O)[C@@H](CO)[C@@H]2C(=O)NCc2cc(F)cc(F)c2)OCO4)cc(OC)c1OC	737
CC1(C(=O)NCc2ccccc2)CN(S(=O)(=O)c2ccccc2)CC(=O)N1C1CCCCC1 (stereo not drawn)	992
CCOc1ccc(NC(=O)NCC2CCOCC2)cc1	685

SMILES	RP-LC retention time [s]
CCC(C(=O)N1CCN(c2ccc3nnc(-c4ccco4)n3n2)CC1)c1ccccc1 (stereo not drawn)	727
C=CCN1CCN(C(=O)[C@@H]2[C@H](c3cc(OC)c(OC)c(OC)c3)c3cc4c(cc3[C@H](O)[C@H]2CO)OCO4)CC1	604
CCn1cc(-c2nc(CC(=O)NCc3ccco3)cs2)c2cccnc21	793
CCOc1ccc(-c2nc3ncccn3c2NCc2ccccc2)cc1	758
Cc1nc(C)c(C(=O)Nc2cc(F)ccc2F)s1	783
COc1ccc(-c2cn3ccn(-c4ccc(Cl)cc4)c(=O)c3n2)cc1OC	887
CN1CCC(OC2CCN(C(=O)c3ccc(Cl)s3)CC2)CC1	609
CC(C)CCNC(=O)CCSC1CCc2ccccc2NC1=O (stereo not drawn)	777
O=C(NCCn1ncccc1=O)c1cccc(C(F)(F)F)c1	646
Cc1cc(C)n(CCN(C(=O)c2ccc([N+](=O)[O-])s2)c2nc3ccccc3s2)n1	1020
COC(=O)c1ccc(C(=O)OC)c(NS(=O)(=O)CCOc2ccccc2)c1	968
CC1CCN(C(=O)C2CCN(c3cc(N4CCCCC4)ncn3)CC2)CC1	676
CC(=O)N1CCc2cc(N3CC(C(=O)Nc4ccc(F)cc4)CC3=O)ccc21 (stereo not drawn)	699
Cc1ccc(CNC(=O)N2CC(Oc3ccc(-c4nc(C)no4)cc3)C2)cc1	861
COc1ccc2c(c1)C1(CCN(C(=O)NCc3ccc(C)cc3)C1)C(=O)N2 (stereo not drawn)	725
CCOC(=O)[C@H]1O[C@@H]1C(=O)N[C@@H](CC(C)C)C(=O)NCCC(C)C	992
CCOc1ccc(C2c3[nH]c4ccccc4c3CCN2C(=O)Cc2cccs2)cc1 (stereo not drawn)	1190
Fc1ccc(-c2noc(-c3ccc(N4CCOCC4)nc3)n2)cc1	1080
CC(C)NC(=O)c1ccc2c(c1)nc(CN(C)C(=O)Nc1ccc3c(c1)OCO3)n2C	606
CNC(=O)[C@@H]1CN(C(=O)c2cccc(Br)c2)C[C@H]1CO	586
Cc1cc(C)cc(NC(=O)Cn2c(=O)n(-c3cccc(C)c3)c(=O)c3c2cc(C)n3C)c1	882
Cc1ccccc1-c1nocc1CCC(=O)O	651
CN(C)CCNc1ncnc2c1cnn2-c1cccc(Cl)c1	648
CC(NC(=O)c1cn(C)c2ncccc12)c1cccnc1 (stereo not drawn)	555

More lines, now with the values ahead:

RP-LC retention time [s]	SMILES
828	Cc1cc(N2CCN(c3ccccn3)CC2)n2nc(-c3cccc(Cl)c3)c(C)c2n1
804	COc1ccc(Cn2nc3c(S(=O)(=O)N4CCCC4)cccn3c2=O)cc1
644	COc1ccc(NC(=O)Cn2c(N3CCOCC3)nc(C)cc2=O)cc1F
787	Cc1ccc(CCNC(=O)Cn2c(C)nc3onc(C)c3c2=O)cc1
1040	Cc1csc(-c2cc(S(=O)(=O)N3CCCCC3)c(C)n2C)n1
1160	Cc1ccc(-c2nc(C3CCN(S(=O)(=O)c4cccc(F)c4)CC3)no2)cc1
774	Cc1ccc(NC(=O)C2CCN(S(=O)(=O)c3ccc4c(c3)CCCC(=O)N4)CC2)c(C)c1
900	COc1ccc(OC)c(S(=O)(=O)N2CCc3c(c(-c4nnc(-c5ccc(F)cc5)o4)nn3C)C2)c1
980	COc1cc(-c2noc(CN3C(=O)C(C)Oc4ccccc43)n2)cc(OC)c1OC (stereo not drawn)
756	CCc1cccc(NS(=O)(=O)c2cc3n(c2)CCCN(CC)C3=O)c1
993	CCS(=O)(=O)N1CC(=O)N(c2ccc(Cl)cc2)C(C)(C(=O)NC2CCCCCCC2)C1 (stereo not drawn)
990	COc1ccc(OC)c(S(=O)(=O)Cc2nc(-c3ccccc3C)no2)c1
879	Cc1cc(C)c(S(=O)(=O)N2CCC(c3cc(N)on3)CC2)cc1C
551	CCN(Cc1c(C)nn(CC)c1C)C(=O)Cn1nc2n(c1=O)CCC(N)CC2 (stereo not drawn)
631	CCCn1c(C(=O)NCCc2ccc(S(N)(=O)=O)cc2)cc2c(=O)n(C)c(=O)n(C)c21
1030	COc1ccc2c(c1)C1CC(C)(O2)N(C)C(=O)C1S(=O)(=O)c1ccc(C)c(C)c1 (stereo not drawn)
711	COc1ccc(CC(=O)N2CCC3(CC2)NC(=O)c2ccccc2N3C)cc1OC
616	Cc1ccccc1Cn1ccnc1C(=O)N1CCNC(=O)C1
1110	CCc1ccc(-c2nc(C3CC(=O)N(c4ccc(C)cc4)C3)no2)cc1 (stereo not drawn)
723	CN1CCn2cc(S(=O)(=O)Nc3ccc(Cl)cc3F)cc2C1=O

RP-LC retention time [s]	SMILES
956	COc1ccc(N2CCN(c3nccc(-n4nc(C)cc4C)n3)CC2)cc1
661	Cc1cc(C(=O)N2CCC(c3noc(-c4ccncc4)n3)C2)nn1C (stereo not drawn)
705	Cc1sc2ccn(C)c(=O)c2c1C(=O)N1CCCCCC1
742	CCC(C)NC(=O)NCCC1CCN(S(=O)(=O)c2ccccc2)CC1 (stereo not drawn)
606	Cn1c(=O)c2c(ncn2CC2OCCO2)n(C)c1=O
901	Cc1ccc(CNC(=O)C2(C)CN(S(C)(=O)=O)CC(=O)N2Cc2ccccc2Cl)cc1 (stereo not drawn)
850	Cc1ccc(NC(=O)C2CCCN(S(=O)(=O)c3cn(C(C)C)cn3)C2)c(Br)c1 (stereo not drawn)
906	Cc1ccc(NC(=O)Cn2c(=O)n(-c3ccccc3)c3ncccc32)cc1C
976	CCN1C(=O)C2(CCN(S(=O)(=O)Cc3ccccc3)CC2)c2ccccc21
787	CC1Oc2ccc(-c3csc(NC(=O)C4CC4)n3)cc2N(C)C1=O (stereo not drawn)
784	CSc1cccc(NC(=O)C2CCN(S(=O)(=O)c3ccc4[nH]c(=O)ccc4c3)CC2)c1
695	Cc1nnc2cc(N3CCN(S(=O)(=O)c4ccc(CC(C)C)cc4)CC3)cnn12
810	Cc1noc(C)c1C1CCCN1C(=O)Cc1cccc(Cl)c1 (stereo not drawn)
664	O=C(NCCc1noc(C2CC2)n1)c1ccoc1
841	O=C(NCC1CCN(C(=O)c2cc3ccccc3o2)CC1)c1cc(Cl)ccc1Cl
709	CCn1cnc(S(=O)(=O)N2CCC(C(=O)Nc3ccc(F)cc3)CC2)c1
725	Cc1ccc(N(C)C(=O)CN(C)S(=O)(=O)c2ccc3c(c2)CCCC(=O)N3)cc1
760	Cc1ccc(CNC(=O)N2CCC(OC3CCN(S(C)(=O)=O)CC3)CC2)cc1
726	Cc1cccc(CC(=O)NC2CCN(c3cc(-c4cccs4)[nH]n3)C2)c1 (stereo not drawn)
1000	COc1ccc(N2CC(c3noc(-c4ccc(C)cc4C)n3)CC2=O)cc1 (stereo not drawn)
